In US7799821B2, “Therapeutic compounds” (Allergan, Inc., priority 2004, dated 2010):

What was measured:
Format in all cases: cell-based
[1] = biological target: T1, hTP (Homo sapiens, UniProt P21731); assay: FLIPR calcium signal, hTP
T1 construct: expressed in transfected cells; host or cells: HEK-293(EBNA)
T1 sequence (P21731 1-343): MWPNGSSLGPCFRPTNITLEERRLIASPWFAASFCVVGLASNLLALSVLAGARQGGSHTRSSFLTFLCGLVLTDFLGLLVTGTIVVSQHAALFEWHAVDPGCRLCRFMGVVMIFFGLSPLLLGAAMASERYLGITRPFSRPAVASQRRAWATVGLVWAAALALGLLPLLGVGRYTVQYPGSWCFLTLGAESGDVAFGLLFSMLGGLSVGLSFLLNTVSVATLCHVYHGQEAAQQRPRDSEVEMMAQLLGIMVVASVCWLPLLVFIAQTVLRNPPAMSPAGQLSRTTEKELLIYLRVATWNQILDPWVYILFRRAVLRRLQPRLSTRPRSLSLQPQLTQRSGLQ
Outline: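 HEK-293(EBNA) cells stably expressing each human prostanoid receptor (EP2 and EP3A coupled via Gqs5/Gqi5 chimeras) were loaded with Fluo-4 AM, and peak calcium fluorescence was measured on FLIPR at 37° C. Compounds were tested at 10^−5 M or from 10^−11 to 10^−5 M in duplicate, n≥3, with response expressed relative to buffer and standard agonist controls.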

[2] = biological target: T2, hFP (Homo sapiens, UniProt P43088); assay: FLIPR calcium signal, hFP; details: Table 3, third part
T2 construct: expressed in transfected cells; host or cells: HEK-293(EBNA)
Procedure: (§1) HEK-293(EBNA) cells, stably expressing one type or subtype of recombinant human prostaglandin receptors (prostaglandin receptors expressed: hDP/Gqs5; hEP1; hEP2/Gqs5; hEP3A/Gqi5; hEP4/Gqs5; hFP; hIP; hTP), were cultured in 100 mm culture dishes in high-glucose DMEM medium containing 10% fetal bovine serum, 2 mM 1-glutamine, 250 μg/ml geneticin (G418) and 200 μg/ml hygromycin B as selection markers, and 100 units/ml penicillin G, 100 μg/ml streptomycin and 0.25 μg/ml amphotericin B. • (b) Calcium Signal Studies on the FLIPR™
(§2) Cells were seeded at a density of 5×10^4 cells per well in Biocoat® Poly-D-lysine-coated black-wall, clear-bottom 96-well plates (Becton-Dickinson) and allowed to attach overnight in an incubator at 37° C. Cells were then washed two times with HBSS-HEPES buffer (Hanks Balanced Salt Solution without bicarbonate and phenol red, 20 mM HEPES, pH 7.4) using a Denley Cellwash plate washer (Labsystems). After 45 minutes of dye-loading in the dark, using the calcium-sensitive dye Fluo-4 AM at a final concentration of 2 μM, plates were washed four times with HBSS-HEPES buffer to remove excess dye leaving 100 μl in each well. Plates were re-equilibrated to 37° C. for a few minutes.
(§3) Cells were excited with an Argon laser at 488 nm, and emission was measured through a 510-570 nm bandwidth emission filter (FLIPR™, Molecular Devices, Sunnyvale, Calif.). Drug solution was added in a 50 μl volume to each well to give the desired final concentration. The peak increase in fluorescence intensity was recorded for each well. On each plate, four wells each served as negative (HBSS-HEPES buffer) and positive controls (standard agonists: BW245C (hDP); PGE2 (hEP1; hEP2/Gqs5; hEP3A/Gqi5; hEP4/Gqs5); PGF2α (hFP); carbacyclin (hIP); U-46619 (hTP), depending on receptor). The peak fluorescence change in each drug-containing well was then expressed relative to the controls.
Compounds were tested in a high-throughput (HTS) or concentration-response (CoRe) format. […]

[3] = biological target: T3, hEP1 (Homo sapiens, UniProt P34995); assay: FLIPR calcium signal, hEP1; details: for EC50: read-out: Other Receptors EC50 hEP1
T3 construct: expressed in transfected cells; host or cells: HEK-293(EBNA)
T3 sequence (P34995 1-402): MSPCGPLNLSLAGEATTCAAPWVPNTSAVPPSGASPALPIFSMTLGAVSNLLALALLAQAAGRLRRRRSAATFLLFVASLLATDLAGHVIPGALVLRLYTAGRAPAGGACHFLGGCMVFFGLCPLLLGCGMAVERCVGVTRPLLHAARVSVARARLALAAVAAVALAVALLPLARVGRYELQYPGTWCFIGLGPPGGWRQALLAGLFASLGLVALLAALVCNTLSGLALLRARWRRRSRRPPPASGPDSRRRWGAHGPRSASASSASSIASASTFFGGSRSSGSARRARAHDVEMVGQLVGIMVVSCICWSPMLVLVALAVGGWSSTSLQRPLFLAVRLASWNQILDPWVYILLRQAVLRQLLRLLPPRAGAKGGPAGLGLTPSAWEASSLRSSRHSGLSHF
Procedure: as §1, §2, §3
Compounds were tested in a high-throughput (HTS) or concentration-response (CoRe) format. In the HTS format, forty-four compounds per plate were examined in duplicates at a concentration of 10^−5 M. To generate concentration-response curves, four compounds per plate were tested in duplicates in a concentration range between 10^−5 and 10^−11 M. The duplicate values were averaged. In either, HTS or CoRe format each compound was tested on at least 3 separate plates using cells from different passages to give an n≧3.

T2 sequence (P43088 whole entry): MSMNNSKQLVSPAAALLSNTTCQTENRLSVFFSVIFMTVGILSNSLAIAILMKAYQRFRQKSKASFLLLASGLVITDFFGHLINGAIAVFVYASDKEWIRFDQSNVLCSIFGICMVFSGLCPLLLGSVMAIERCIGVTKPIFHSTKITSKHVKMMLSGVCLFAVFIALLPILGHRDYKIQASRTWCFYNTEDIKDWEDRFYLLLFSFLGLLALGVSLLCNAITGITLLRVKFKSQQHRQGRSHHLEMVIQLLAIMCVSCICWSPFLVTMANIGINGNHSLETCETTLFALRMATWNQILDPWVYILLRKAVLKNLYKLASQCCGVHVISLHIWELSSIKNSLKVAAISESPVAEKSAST

EC50 [3]	Structure (SMILES)	further results
	CCCCCC(C)c1ccc([C@@H]2[C@@H](C/C=C\CCCC(=O)O)[C@H](C#N)C[C@H]2C)cc1 (some centres unmarked)	Ca2+ Signal-EC50 (nM) TP ([1]; Table 3, third part): not active; Ca2+ Signal-EC50 (nM) FP [2]: not active; Ca2+ Signal-EC50 (nM) EP1 ([3]; Table 3, third part): not active
> 10 µM	CC(C)(C)c1ccc(N2C(=O)CC[C@@H]2COCc2ccc(C(=O)O)s2)cc1	EC50 ([1]; read-out: Other Receptors EC50 hTP): > 10 µM
> 10 µM	CC(C)(C)c1ccc(N2C(=O)CC[C@@H]2CCCCCCC(=O)O)cc1	
6.95 µM	CCCCCCC(O)c1ccc(N2C(=O)CC[C@@H]2CCCc2ccc(C(=O)O)s2)cc1 (single isomer, unassigned) [drawing 155]	
6.95 µM	CCCCCCC(O)c1ccc(N2C(=O)CC[C@@H]2CCCc2ccc(C(=O)O)s2)cc1 (single isomer, unassigned) [drawing 183]	
